#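 1) Cells in 96-well plates. 2) Compound, 48 h, 5 concentrations. 3) Linear interpolation between surrounding doses. 4) Unreached endpoint = highest concentration. GI50 = concentration required for 50% inhibition of growth.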 Active and inactive are the calls of the source. Rule as the data show it: active = GI50 up to about 1.1 µM and inactive = higher.
# Columns and labels:
# Test in all cases: NCI tumour cell line growth inhibition, 48 h
# SK-MEL-28 = system: SK-MEL-28
# OVCAR-8 = system: OVCAR-8
# A498 = system: A498
# LOX IMVI = system: LOX IMVI
# LXFL 529 = system: LXFL 529
# HT-29 = system: HT-29
# UACC-62 = system: UACC-62
# SK-OV-3 = system: SK-OV-3
# SF-268 = system: SF-268
# TK-10 = system: TK-10
# ACHN = system: ACHN
# IGROV-1 = system: IGROV-1
# CCRF-CEM = system: CCRF-CEM
# SN12C = system: SN12C
# COLO 205 = system: COLO 205
# SW-620 = system: SW-620
# MCF7 = system: MCF7
# CAKI-1 = system: CAKI-1
# T47D = system: T47D
# HOP-62 = system: HOP-62
Structure (SMILES),GI50 (SK-MEL-28),GI50 (OVCAR-8),GI50 (A498),GI50 (LOX IMVI),GI50 (LXFL 529),GI50 (HT-29),GI50 (UACC-62),GI50 (SK-OV-3),GI50 (SF-268),GI50 (TK-10),GI50 (ACHN),GI50 (IGROV-1),GI50 (CCRF-CEM),GI50 (SN12C),GI50 (COLO 205),GI50 (SW-620),GI50 (MCF7),GI50 (CAKI-1),GI50 (T47D),GI50 (HOP-62)
O=C(NN1C(=O)C(Cl)C1c1cccc(Cl)c1)c1ccccc1O (centres undefined),> 100 µM (inactive),> 100 µM (inactive),> 100 µM (inactive),> 100 µM (inactive),> 100 µM (inactive),> 100 µM (inactive),> 100 µM (inactive),> 100 µM (inactive),> 100 µM (inactive),> 100 µM (inactive),> 100 µM (inactive),> 100 µM (inactive),> 100 µM (inactive),> 100 µM (inactive),–,–,–,–,–,–
CC(C)CNC(=O)O,> 100 µM (inactive),> 100 µM (inactive),> 100 µM (inactive),> 100 µM (inactive),–,> 100 µM (inactive),> 100 µM (inactive),> 100 µM (inactive),> 100 µM (inactive),> 100 µM (inactive),> 100 µM (inactive),> 100 µM (inactive),> 100 µM (inactive),> 100 µM (inactive),> 100 µM (inactive),> 100 µM (inactive),> 100 µM (inactive),> 100 µM (inactive),> 100 µM (inactive),> 100 µM (inactive)
Oc1ccc2ccccc2c1/C=C/c1ccc2c(Br)cc(Br)c(O)c2n1,12.8 µM (inactive),3.57 µM (inactive),5.64 µM (inactive),2.6 µM (inactive),–,9.73 µM (inactive),6.01 µM (inactive),9.4 µM (inactive),5.87 µM (inactive),11 µM (inactive),5.6 µM (inactive),2.17 µM (inactive),2.38 µM (inactive),5.04 µM (inactive),4.86 µM (inactive),4.9 µM (inactive),1.24 µM (inactive),11 µM (inactive),11.6 µM (inactive),8.17 µM (inactive)
COCCCN(Cc1cc(OC)c(OC)c(OC)c1)C(=S)Nc1cccc(Cl)c1,27.5 µM (inactive),25 µM (inactive),28.3 µM (inactive),21.5 µM (inactive),–,18.7 µM (inactive),15.4 µM (inactive),41 µM (inactive),19.9 µM (inactive),47 µM (inactive),28.6 µM (inactive),34.4 µM (inactive),25.3 µM (inactive),24.4 µM (inactive),33.8 µM (inactive),31.8 µM (inactive),21.7 µM (inactive),21.5 µM (inactive),12.2 µM (inactive),42.6 µM (inactive)
CC(=O)/C(=C\c1ccccc1)C(=O)Nc1ccccc1,–,> 100 µM (inactive),–,> 100 µM (inactive),> 100 µM (inactive),> 100 µM (inactive),> 100 µM (inactive),> 100 µM (inactive),> 100 µM (inactive),> 100 µM (inactive),> 100 µM (inactive),> 100 µM (inactive),> 100 µM (inactive),> 100 µM (inactive),–,> 100 µM (inactive),–,> 100 µM (inactive),–,> 100 µM (inactive)
Oc1c(C2=N[C@H]3CCCC[C@@H]3N2)ccc2ccccc12,> 100 µM (inactive),> 100 µM (inactive),> 100 µM (inactive),> 100 µM (inactive),–,> 100 µM (inactive),> 100 µM (inactive),> 100 µM (inactive),> 100 µM (inactive),> 100 µM (inactive),> 100 µM (inactive),> 82 µM (inactive),> 100 µM (inactive),> 100 µM (inactive),> 100 µM (inactive),> 100 µM (inactive),> 100 µM (inactive),> 100 µM (inactive),> 100 µM (inactive),> 44.7 µM (inactive)
COc1cc2cnc3c4cc(O)ccc4ccc3c2cc1OC,65.6 µM (inactive),23.6 µM (inactive),–,42.6 µM (inactive),6.08 µM (inactive),> 100 µM (inactive),72.4 µM (inactive),> 100 µM (inactive),23.6 µM (inactive),> 100 µM (inactive),> 100 µM (inactive),75.7 µM (inactive),29.9 µM (inactive),35.2 µM (inactive),12.9 µM (inactive),54.7 µM (inactive),–,> 100 µM (inactive),–,36.8 µM (inactive)
COc1ccccc1N1C(=O)C2c3[nH]c4ccccc4c3C3CCC(C(C)(C)C)CC3C2C1=O (centres undefined),> 100 µM (inactive),> 100 µM (inactive),> 100 µM (inactive),–,> 100 µM (inactive),> 100 µM (inactive),> 100 µM (inactive),> 100 µM (inactive),> 100 µM (inactive),–,> 100 µM (inactive),> 100 µM (inactive),> 100 µM (inactive),> 100 µM (inactive),> 100 µM (inactive),> 100 µM (inactive),–,–,–,> 100 µM (inactive)
CCOC(=O)N1CCN(c2c(C)nc(C)nc2O)CC1,> 100 µM (inactive),> 100 µM (inactive),> 100 µM (inactive),> 100 µM (inactive),–,> 100 µM (inactive),> 100 µM (inactive),> 100 µM (inactive),> 100 µM (inactive),> 100 µM (inactive),> 100 µM (inactive),> 100 µM (inactive),> 100 µM (inactive),> 100 µM (inactive),> 100 µM (inactive),> 100 µM (inactive),> 100 µM (inactive),> 100 µM (inactive),> 100 µM (inactive),> 100 µM (inactive)
Cc1nc2c(C)ccc([N+](=O)[O-])c2c(NCCCN(C)C)c1C,27.1 µM (inactive),> 46.6 µM (inactive),> 22.3 µM (inactive),44.3 µM (inactive),–,24.7 µM (inactive),37.2 µM (inactive),> 100 µM (inactive),> 100 µM (inactive),> 41.6 µM (inactive),> 100 µM (inactive),> 100 µM (inactive),51.6 µM (inactive),> 62.8 µM (inactive),23.9 µM (inactive),> 38.5 µM (inactive),46.5 µM (inactive),66.4 µM (inactive),> 100 µM (inactive),> 43.9 µM (inactive)
CC1=C(C(=O)CC(=O)C(=O)Nc2cccc(C)c2C)Sc2ccccc2N1,> 100 µM (inactive),> 100 µM (inactive),–,> 100 µM (inactive),> 100 µM (inactive),> 100 µM (inactive),> 100 µM (inactive),> 100 µM (inactive),> 100 µM (inactive),> 100 µM (inactive),> 100 µM (inactive),> 100 µM (inactive),> 100 µM (inactive),> 100 µM (inactive),–,> 100 µM (inactive),–,> 100 µM (inactive),–,> 100 µM (inactive)
COc1cccc(/N=N/C(=N/NC(=O)c2ccc(C)cc2)c2ccc(N(CCC#N)CCC#N)cc2OC)c1,> 100 µM (inactive),> 100 µM (inactive),> 100 µM (inactive),> 100 µM (inactive),–,21.2 µM (inactive),> 100 µM (inactive),> 100 µM (inactive),> 100 µM (inactive),8.05 µM (inactive),> 100 µM (inactive),> 100 µM (inactive),> 100 µM (inactive),> 100 µM (inactive),> 100 µM (inactive),> 100 µM (inactive),> 100 µM (inactive),> 100 µM (inactive),> 100 µM (inactive),> 100 µM (inactive)
CCOC(=O)Cn1c(=O)c2nc(SC)sc2n(-c2ccc(C)cc2)c1=S,> 100 µM (inactive),36.6 µM (inactive),46.8 µM (inactive),> 100 µM (inactive),–,> 87.3 µM (inactive),43.8 µM (inactive),45.8 µM (inactive),30.1 µM (inactive),36.7 µM (inactive),48.1 µM (inactive),55.3 µM (inactive),> 100 µM (inactive),> 52.2 µM (inactive),> 100 µM (inactive),> 100 µM (inactive),> 100 µM (inactive),> 100 µM (inactive),> 87.1 µM (inactive),20 µM (inactive)
C/C=C/C1OC(O)(C(C)C(O)[C@H](C)C2OC(=O)/C(OC)=C/C(C)=C/[C@@H](C)[C@@H](O)[C@@H](C)C(O)C(C)C/C(C)=C/C=C/C2OC)C[C@@H](OC2CC(O)C(OC(N)=O)C(C)O2)C1C (some centres undefined),1.45 µM (inactive),< 0.01 µM (active),0.131 µM (active),< 0.01 µM (active),–,< 0.01 µM (active),< 0.01 µM (active),2.47 µM (inactive),< 0.01 µM (active),< 0.01 µM (active),< 0.01 µM (active),< 0.01 µM (active),< 0.01 µM (active),< 0.01 µM (active),< 0.01 µM (active),< 0.01 µM (active),< 0.01 µM (active),< 0.01 µM (active),< 0.01 µM (active),< 0.01 µM (active)
Cc1c2ccncc2c(C)c2c1[nH]c1ccc(OCC(F)(F)F)cc12,1.73 µM (inactive),1.32 µM (inactive),–,1.61 µM (inactive),1.2 µM (inactive),1.53 µM (inactive),–,1.82 µM (inactive),1.55 µM (inactive),2.1 µM (inactive),1.55 µM (inactive),1.61 µM (inactive),1.21 µM (inactive),1.37 µM (inactive),1.55 µM (inactive),0.619 µM (active),–,2.11 µM (inactive),–,1.63 µM (inactive)

# Source: ChEMBL document CHEMBL1201862, “PubChem BioAssay data set” (2004)
